The values that follow come from patent publication US12319709B2, “Diaryl trehalose compounds and uses thereof” (THE UNIVERSITY OF MONTANA, priority 2018, dated 2025).

The structures appear in SMILES notation. A value given as a limit tells only on which side of the number the result lay.

Experiment [1] deals with Balb/c mice. As to the kind of experiment: i.m. immunization of Balb/c mice with M72 antigen and liposomal adjuvant; splenocyte restimulation, intracellular cytokine staining. As to conditions: liposomal formulation, M72 restimulated splenocytes; TDB at highest dose. It counts as in vivo, mouse.
Experiment [2] has as its system peripheral blood mononuclear cells (PBMCs). As to the kind of experiment: Cytokine analysis of supernatants of stimulated, freshly prepared PBMCs. The conditions noted are these: compounds solubilized in DMSO. It counts as cell-based, human. As to the method:
Tumor necrosis factor alpha (TNFα) and IL-6 production in peripheral blood mononuclear cells (PBMCs) was measured after exposure to various concentrations of the DAT compounds synthesized as shown above. Initial studies focused on two different methods of delivery of the DAT compounds to PBMC cultures. In the first delivery method, the indicated derivative compound was dissolved in isopropanol, serially diluted, and then dried to the bottom of a tissue culture plate. In the second delivery method, the indicated derivative compound was dissolved in DMSO and serially diluted into tissue culture media. In each method, PBMCs were added to the compounds and incubated at 37° C. TNFα (FIG. 1A) and IL-6 (FIG. 1B) were measured after 18-24 hours after treatment by ELISA assay.
Supernatants from the freshly prepared PBMCs stimulated with DAT compounds solubilized in DMSO (Example 5A) were analyzed for the cytokines that help drive Th1 cell or Th17 cell adaptive immune responses; IFNγ, IL-12 p70, IL-6, IL-1β, and IL-23. Minimal amounts of IL-12p70 were detected and IFNγ was undetectable. Therefore, both are not reported.

For experiment [3] the test system is unchanged. Kind of experiment: IL-6 induction in fresh human PBMCs. Type of experiment: cell-based. As to conditions: for IL-6 production / activity in fresh PBMCs from multiple donors (in words): compounds in DMSO serially diluted in media, supernatants 18 h after treatment; for Maximum cytokine response h-IL-6 / Minimal Effective Concentration h-IL-6: human IL-6, NR = no response. In short, it runs like this: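 Fresh human PBMCs incubated at 37 °C with serially diluted compounds delivered in DMSO into medium. IL-6 in supernatants quantified by ELISA 18 h after treatment.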

Experiment [4] has as its system RAW264.7 cells. Kind of experiment: Cytokine (TNFα) response of mouse macrophage cell line; Table 2 'Murine'. It counts as cell-based. Also noted: Maximum cytokine response Murine: unit not given here. The conditions noted are these: NR = no response. How it is done: Compounds were also tested in a mouse macrophage cell line (FIG. 4B). RAW264.7 cells were subjected to increasing concentrations of the compounds and assessed for production of the cytokine TNFα.

Consider `CCCCCCCCCCCCCCCCCCCCCC(=O)OC[C@H]1O[C@H](O[C@H]2O[C@H](COC(=O)CCCCCCCCCCCCCCCCCCCCC)[C@@H](O)[C@H](O)[C@H]2O)[C@H](O)[C@@H](O)[C@@H]1O` [TDB, trehalose dibehenate, reference compound], for which the “antigen-specific CD4+ and CD8+ IL-17A producing cells (Th17 response)” value in experiment [1] is reported as “induced some IL-17A”.
Regarding `O=C(/C=C/c1ccc(O)c(O)c1)OC[C@H]1O[C@H](O[C@H]2O[C@H](COC(=O)/C=C/c3ccc(O)c(O)c3)[C@@H](O)[C@H](O)[C@H]2O)[C@H](O)[C@@H](O)[C@@H]1O` [UM1021], the “TNFα response in PBMCs (in words)” value in experiment [2] was “higher responding”. In experiment [3], the “IL-6 production / activity in fresh PBMCs from multiple donors (in words)” value (from here on “IL-6 production / activity”) was “induced some cytokine production”, the “Maximum cytokine response h-IL-6” value was determined as 2 OD and the “Minimal Effective Concentration h-IL-6” value was found to be 333 µM. Besides, in experiment [4], the “Maximum cytokine response Murine” value is on record as 3 and the “Minimal Effective Concentration Murine” value was 333 µM.
Turning to `COc1cc(/C=C/C(=O)OC[C@H]2O[C@H](O[C@H]3O[C@H](COC(=O)/C=C/c4cc(OC)c(OC)c(OC)c4)[C@@H](O)[C@H](O)[C@H]3O)[C@H](O)[C@@H](O)[C@@H]2O)cc(OC)c1OC` [UM1020], the “TNFα response in PBMCs (in words)” value in experiment [2] is on record as “higher responding”. In experiment [3], the “Maximum cytokine response h-IL-6” value is on record as 1.5 OD and the “Minimal Effective Concentration h-IL-6” value amounted to 333 µM. Moreover, in experiment [4], the “Maximum cytokine response Murine” value amounted to 3.2 and the “Minimal Effective Concentration Murine” value was determined as 33.3 µM.
With `COc1cc(OC)cc(C(=O)OC[C@H]2O[C@H](O[C@H]3O[C@H](COC(=O)c4cc(OC)cc(OC)c4)[C@@H](O)[C@H](O)[C@H]3O)[C@H](O)[C@@H](O)[C@@H]2O)c1` [UM1015, 6,6′-bis-(3,5-dimethoxybenzoate)-α,α-trehalose], the “TNFα response in PBMCs (in words)” value in experiment [2] is on record as “higher responding”. In addition, in experiment [3], the “IL-6 production / activity” value was “potent, robust activity in only 3 of 5 donors”; the “Maximum cytokine response h-IL-6” value was 3.6 OD; the “Minimal Effective Concentration h-IL-6” value was 111 µM. In addition, in experiment [4] (listed as 1015), the “Maximum cytokine response Murine” value amounted to 3.5 and the “Minimal Effective Concentration Murine” value was 12.3 µM.
`COc1ccc(/C=C/C(=O)OC[C@H]2O[C@H](O[C@H]3O[C@H](COC(=O)/C=C/c4ccc(OC)c(OC)c4)[C@@H](O)[C@H](O)[C@H]3O)[C@H](O)[C@@H](O)[C@@H]2O)cc1OC` [UM1019]: in experiment [2], the “TNFα response in PBMCs (in words)” value is recorded as “higher responding”. In experiment [3], the “Maximum cytokine response h-IL-6” value was determined as 2 OD and the “Minimal Effective Concentration h-IL-6” value came to 333 µM. Moreover, in experiment [4], the “Maximum cytokine response Murine” value was found to be 2.3 and the “Minimal Effective Concentration Murine” value was 111 µM.
On to `CC(C)c1cc(C(=O)OC[C@H]2O[C@H](O[C@H]3O[C@H](COC(=O)c4cc(C(C)C)cc(C(C)C)c4O)[C@@H](O)[C@H](O)[C@H]3O)[C@H](O)[C@@H](O)[C@@H]2O)c(O)c(C(C)C)c1` [UM1023, 6,6′-bis-(3,5-di-iso-propylsalisate)-α,α-trehalose], for which the “TNFα response in PBMCs (in words)” value in experiment [2] is “higher responding”. In addition, the “IL-6 production / activity” value in experiment [3] is reported as “lower activity”. In experiment [4], the “Maximum cytokine response Murine” value is listed as 2.5 and the “Minimal Effective Concentration Murine” value turned out to be 0.45 µM.
For `O=C(OC[C@H]1O[C@H](O[C@H]2O[C@H](COC(=O)c3cc([N+](=O)[O-])cc([N+](=O)[O-])c3)[C@@H](O)[C@H](O)[C@H]2O)[C@H](O)[C@@H](O)[C@@H]1O)c1cc([N+](=O)[O-])cc([N+](=O)[O-])c1` [UM1080], in experiment [3], the “Maximum cytokine response h-IL-6” value was found to be 2 OD and the “Minimal Effective Concentration h-IL-6” value amounted to 100 µM. Besides, in experiment [4], the “Maximum cytokine response Murine” value is 1 and the “Minimal Effective Concentration Murine” value stood at 33 µM.
The corresponding values for `CCOc1cc(C(=O)OCC2OC(OC3OC(COC(=O)c4cc(OCC)c(OCC)c(OCC)c4)C(O)C(O)C3O)C(O)C(O)C2O)cc(OCC)c1OCC` (centres unmarked) [UM1049] are 3.3 OD, 2 µM, 1.3 and 0.13 µM.
In the same order, the values of `CCCCCCCCOc1cc(OCCCCCCCC)cc(C(=O)OC[C@H]2O[C@H](O[C@H]3O[C@H](COC(=O)c4cc(OCCCCCCCC)cc(OCCCCCCCC)c4)[C@@H](O)[C@H](O)[C@H]3O)[C@H](O)[C@@H](O)[C@@H]2O)c1` [UM1093] are 3.4 OD, 1.2 µM, “<.001” and 3.4 µM.
In the same order, the values of `CC(C)(C)c1cc(C(=O)OC[C@H]2O[C@H](O[C@H]3O[C@H](COC(=O)c4cc(C(C)(C)C)c(O)c(C(C)(C)C)c4)[C@@H](O)[C@H](O)[C@H]3O)[C@H](O)[C@@H](O)[C@@H]2O)cc(C(C)(C)C)c1O` [UM1087] are 3 OD, 33.3 µM, 3 and 0.13 µM.
In the case of `CCOc1cc(C(=O)NC[C@H]2O[C@H](O[C@H]3O[C@H](CNC(=O)c4cc(OCC)c(OCC)c(OCC)c4)[C@@H](O)[C@H](O)[C@H]3O)[C@H](O)[C@@H](O)[C@@H]2O)cc(OCC)c1OCC` [UM1110], in experiment [3], the “Maximum cytokine response h-IL-6” value is 1 OD and the “Minimal Effective Concentration h-IL-6” value stood at 100 µM. Moreover, in experiment [4], the “Maximum cytokine response Murine” value was 11 and the “Minimal Effective Concentration Murine” value worked out at 2.5 µM.
Take `Cc1ccc(C(=O)OC[C@H]2O[C@H](O[C@H]3O[C@H](COC(=O)c4ccc(C)cc4C(F)(F)F)[C@@H](O)[C@H](O)[C@H]3O)[C@H](O)[C@@H](O)[C@@H]2O)c(C(F)(F)F)c1` [UM1085]: in experiment [3], the “Maximum cytokine response h-IL-6” value is listed as 3 OD and the “Minimal Effective Concentration h-IL-6” value was 100 µM. In experiment [4], the “Maximum cytokine response Murine” value is listed as 2.2 and the “Minimal Effective Concentration Murine” value was 33 µM.
On to `CCCCCCCCCCOc1cc(OCCCCCCCCCC)cc(C(=O)OC[C@H]2O[C@H](O[C@H]3O[C@H](COC(=O)c4cc(OCCCCCCCCCC)cc(OCCCCCCCCCC)c4)[C@@H](O)[C@H](O)[C@H]3O)[C@H](O)[C@@H](O)[C@@H]2O)c1` [UM1094], for which, in experiment [3], the “Maximum cytokine response h-IL-6” value is 3.4 OD and the “Minimal Effective Concentration h-IL-6” value came out at 1.2 µM. Moreover, in experiment [4], the “Maximum cytokine response Murine” value is reported as “<.001” and the “Minimal Effective Concentration Murine” value stood at 3.4 µM.
On to `Cc1cc(C)cc(C(=O)OCC2OC(OC3OC(COC(=O)c4cc(C)cc(C)c4)C(O)C(O)C3O)C(O)C(O)C2O)c1` (centres unmarked) [UM1016], for which, in experiment [3], the “Maximum cytokine response h-IL-6” value was 1.5 OD and the “Minimal Effective Concentration h-IL-6” value was 1000 µM. In experiment [4], the “Maximum cytokine response Murine” value is listed as 3 and the “Minimal Effective Concentration Murine” value was 4.1 µM.
As to `COc1cc(C)c(C(=O)OC[C@H]2O[C@H](O[C@H]3O[C@H](COC(=O)c4c(C)cc(OC)cc4OC)[C@@H](O)[C@H](O)[C@H]3O)[C@H](O)[C@@H](O)[C@@H]2O)c(OC)c1` [UM1022], the “TNFα response in PBMCs (in words)” value in experiment [2] was “higher responding”. In experiment [3], the “IL-6 production / activity” value is on record as “reproducibly induced potent, robust IL-6 production”; the “Maximum cytokine response h-IL-6” value is 3 OD; the “Minimal Effective Concentration h-IL-6” value was 333 µM. Further, in experiment [4], the “Maximum cytokine response Murine” value was 3.3 and the “Minimal Effective Concentration Murine” value was 37 µM.
